Data reported in patent publication US6589946B2, “Bile salt conjugates” (Galmed International Limited, priority 1998, dated 2003).

Legend:
[1] = Cholesterol crystal mass in model bile
Experimental: (§1) EYL, cholesterol and Na-TC mixtures were dissolved in CHCl3/CH3OH (2:1 v/v), dried under N2 at room temperature, lyophilized overnight and kept at −20°C. under argon until used. Model bile solutions were prepared by suspending the dried lipids in 150 mM NaCl, 1.5 mM disodium EDTA, 50 mM Tris-HCl pH 8.0 and incubating the suspension at 55° C. for 1 hour. The solubilized model biles were incubated, in sealed vials under argon, at 37° C. for the duration of the experiment. Aliquots from the models were examined daily.
Chemical analyses of cholesterol were performed on each sample on the last day of the experiment (day 14), as previously described (G. J. Somjen see above). The samples were collected from the micro wells, centrifuged in an Airfuge (Beckman) at 70,000 rpm for 5 min. Separate determinations were performed on the total sample (before centrifugation) as well as on the supernatant solution. The amount of cholesterol in the precipitated pellets was calculated by subtracting the amounts in the supernatant solutions from the total. […] The crystal mass was also measured spectrophotometrically as the OD difference between day 0 and day 14 of the incubation.
Cholesterol 15 mM, EYL […]. […]
All samples were incubated at 37° C. for 100 hrs. The difference in the optical density between 100 hrs. and 0 hrs.

[2] = Crystal observation time (nucleation time) assay in model bile; settings: for effect on nucleation time versus control solution: 20% of NaTC replaced by the specific conjugate
Experimental: Aliquots from each model bile were examined daily by polarized light microscopy. COT was defined as the initial time of detection of at least three cholesterol monohydrate crystals per microscopic field at 100 fold magnification.
Cholesterol 15 mM, EYL 30 ml, NaTC 150 mL. […] In the test solutions 20 mole percent of NaTC was replaced by an equimolar amount of each specific fatty acid/bile acid conjugate tested.

[3] = Cholesterol crystal appearance in pooled native human gallbladder bile; settings: 10 mM test compound; 37° C.; incubation period of 21 days; control bile showed crystals from day 2
Experimental: Native human gallbladder bile was obtained from cholesterol gallstone patients at cholecystectomy. Pooled bile from several patients was cholesterol enriched by incubation with dried cholesterol or by mixing with a concentrated model bile prior to use in experiments in order to facilitate crystallization.
When the test compound (at a concentration of 10 mM) was incubated with pooled native human gallbladder bile from patients with cholesterol gallstones, the results were as follows:
In the native human bile, from which cholesterol crystals were removed by prior ultracentrifugation for 2 hours, new cholesterol crystals were observed from day 2 of incubation (at 37° C.). Crystal numbers increased progressively reaching a peak of more than 150 crystals per microscopic field on day 14.

[4] = Crystal growth rate (CGR) assay in model bile
Experimental: as §1
Crystal growth was monitored spectrophotometrically using a microplate reader (SPECTRA-STL, Austria) (G. J. Somjen, et al., J. Lipid Res., 38, […] 1048-1052). Aliquots (50 μl) of lipid solutions were mixed and shaken vigorously with equivalent volumes of Na-taurodeoxycholate (200 mM), in microplate wells. After 60 minutes at room temperature, the microplates were shaken again and the absorbance, at 405 nm, in each well was measured. Each model was prepared in triplicate and sampled in duplicate for measurement.
The data were collected and analyzed by an IBM compatible personal computer, and the optical density (OD), averaged for triplicate preparations, was calculated. A graph describing the averaged OD changes for each solution was plotted. The slope in the steepest region of the curve was determined by a linear regression fit to at least three measurements and defined as the CGR. CGR and OD differences between day 0 and day 14 were calculated for each model.

[5] = Oral PalC in hamsters, TLC of gallbladder bile; format: in vivo; settings: per os 10-15 mg/animal/day
Experimental: Male, 6-7 weeks old hamsters weighing 79-83 g were maintained in an animal house with ad libidum access to water and chow.
Test hamsters were given per os by a special syringe 10-15 mg/animal/day of PalC dissolved in 1 ml of saline. Control animals were given an equivalent volume of saline alone. […] On the second day 4 hours after the application of the PalC in saline to the respective animals they were killed by an overdose of chloroform vapors. The abdomens were opened, the bile ducts were tied up, the gallbladders were excised and rinsed twice in saline. They were then placed on the top of conical plastic tubes and incised. The bile was collected at the bottom of the tubes.
Bile samples were centrifuged (Eppendorf centrifuge) for 5 min. at 2000 rpm. Debris was discarded and the supernatant was extracted according to the Folch procedure (chloroform: methanol 2:1). After partition with water, the lipid phase was analyzed by thin layer chromatography on silica gel 60 thin layer plates (Merck). The eluent was dichloromethane:methanol:acetic acid (100:5:1, v:v:v). Samples were compared with a true standard, Reference front (Rf) about 0.2 after development with I2 vapors.

[6] = fed regularly to humans; cited from earlier work
[7] = 20% of Na taurocholate replaced by test compound, vs control model bile
[8] = 10% of NaTC replaced by PalC (B)
[9] = test compound added to whole model bile at 20% of bile salts (F)

**Q.** For `CCCCCCCCCCCCCCCCCCCC(=O)N[C@H]1CC[C@@]2(C)[C@@H](C1)C[C@@H](O)[C@@H]1[C@@H]2C[C@H](O)[C@]2(C)[C@@H]([C@H](C)CCC(=O)O)CC[C@@H]12` [C20 conjugate, 3β-Arachidylamido-7α,12α-dihydroxy-5β-cholan-24-oic Acid], which “final cholesterol crystal mass, % of the control” value ([1]; 20 mole percent of NaTC replaced, 14 days of incubation) is on record?
**A.** The value was 38%.

**Q.** What about the “nucleation time (crystal observation time) prolonged by” value [2, 7] of the same molecule?
**A.** The value was “more than 360%”.

**Q.** What about the “effect on nucleation time versus control solution” value [2] of the same molecule?
**A.** The value was “prolongation of the nucleation time”.

**Q.** For `CCCCCCCCCCCCCC(=O)N[C@H]1CC[C@@]2(C)[C@@H](C1)C[C@@H](O)[C@@H]1[C@@H]2C[C@H](O)[C@]2(C)[C@@H]([C@H](C)CCC(=O)O)CC[C@@H]12` [Example C14, 3β-Myristylamido-7α,12α-dihydroxy-5β-cholan-24-oic Acid], which “effect on nucleation time versus control solution” value [2] is on record?
**A.** Its value is “did not prolong the nucleation time”.

**Q.** With `CCCCCCCCCCCCCCCC(=O)N[C@H]1CC[C@@]2(C)[C@@H](C1)C[C@@H](O)[C@@H]1[C@@H]2C[C@H](O)[C@]2(C)[C@@H]([C@H](C)CCC(=O)O)CC[C@@H]12` [PalC, 3β-Palmitylamido-7α,12α-dihydroxy-5β-cholan-24-oic Acid] as the molecule, how does the “new cholesterol crystals during incubation” value [3] read?
**A.** The value was “no cholesterol crystals were seen”.

**Q.** What about the “cholesterol mass on day 14 reduced by” value [1, 8] of the same molecule?
**A.** The value was 17%.

**Q.** And the “total cholesterol crystal mass reduced by” value ([1]; 20% of Na taurocholate replaced by test compound, 14 days of incubation)?
**A.** Its value is 53%.

**Q.** What about the “total crystal mass reduced by” value ([1]; test compound added to whole model bile at 20% of bile salts (F), 14 days of incubation) of the same molecule?
**A.** The value was 51%.

**Q.** And the “crystal growth rate reduced by” value [4, 8]?
**A.** Its value is 70%.

**Q.** What about the “cholesterol crystal growth rate reduced by” value ([4]; 20% of Na taurocholate replaced by test compound) of the same molecule?
**A.** Its value is 67%.

**Q.** And the “cholesterol crystal growth rate reduced by” value [4, 9]?
**A.** The value was 59%.

**Q.** And the “behaviour of animals in the course of treatment” value [5]?
**A.** The value was “behaved normally”.

**Q.** And the “presence in gallbladder bile by TLC (absorbed and excreted into bile)” value ([5]; bile taken on second day 4 hours after application)?
**A.** The value was “presence of PalC in the bile”.

**Q.** And the “nucleation time (crystal observation time) prolonged by” value [2, 7]?
**A.** The value was 167%.

**Q.** And the “effect on nucleation time versus control solution” value [2]?
**A.** The value was “prolongation of the nucleation time”.

**Q.** What about the “nucleation time (crystal observation time) prolonged by” value [2, 9] of the same molecule?
**A.** The value was 200%.

**Q.** Which “retardation of cholesterol crystallization (nucleation time) versus control model bile and equimolar cholic acid” value ([2]; 20 mole % of NaTC replaced, 37° C.) does the source give for `CCCCCCCCCCCCCCCCCC(=O)N[C@H]1CC[C@@]2(C)[C@@H](C1)C[C@@H](NC(=O)CCCCCCCCCCCCCCCCC)[C@@H]1[C@@H]2CC[C@]2(C)[C@@H]([C@H](C)CCC(=O)O)CC[C@@H]12` [distearoyl ursodeoxycholate, 3β,7α-Distearylamido-5β-ursodeoxycholan-24-oic Acid] here?
**A.** The value was “particularly effective”.

**Q.** Which “share of biliary bile acids” value [6] does the source give for `C[C@H](CCC(=O)O)[C@H]1CC[C@H]2[C@@H]3[C@@H](O)C[C@@H]4C[C@H](O)CC[C@]4(C)[C@H]3CC[C@]12C` [ursodeoxycholic acid] here?
**A.** Its value is 30-50%.
